Values of other authors, collected in PubChem BioAssay AID1259409 (Chemical Carcinogenesis Research Information System (CCRIS), 2018).

System: rodent chemically induced tumor inhibition, incidence and multiplicity
Experiment: CCRIS tumor inhibitor studies

Structure (SMILES): O=C1O[C@H]([C@@H](O)CO)C(O)=C1O
- tumour outcome (control, treated, inhibition, significance) (Carcinogen: DIETHYLNITROSAMINE, 55-18-5, Dose [Inhibitor]: 0, 15 G/L IN DRINKING WATER FOR DURATION OF STUDY BEGINNING 1 D PRIOR TO FIRST CARCINOGEN DOSE (STUDY DURATION: 6 MO), Route [Inhibitor]: ORAL, Species: RAT, Strain/Sex: BD6/FEMALE, Target Tissue: Type of Lesion: ESOPHAGUS: TUMOR, Dose [Carcinogen]: 80 MG/KG BW 1/WK FOR 10 WK, Promoter: NONE USED): 35%, 24%, 31%, not significant
- tumour outcome (control, treated, inhibition, significance) (Carcinogen: DIETHYLNITROSAMINE, 55-18-5, Dose [Inhibitor]: 0, 15 G/L IN DRINKING WATER FOR DURATION OF STUDY BEGINNING 1 D PRIOR TO FIRST CARCINOGEN DOSE (STUDY DURATION: 6 MO), Route [Inhibitor]: ORAL, Species: RAT, Strain/Sex: BD6/FEMALE, Target Tissue: Type of Lesion: LIVER: TUMOR, Dose [Carcinogen]: 80 MG/KG BW 1/WK FOR 10 WK, Promoter: NONE USED): 100%, 92%, 8%, not significant
- tumour outcome (control, treated, inhibition, significance) (Carcinogen: DIETHYLNITROSAMINE, 55-18-5, Dose [Inhibitor]: 0, 15 G/L IN DRINKING WATER FOR DURATION OF STUDY BEGINNING 2 D POST CARCINOGEN TREATMENT (STUDY DURATION: 6 MO), Route [Inhibitor]: ORAL, Species: RAT, Strain/Sex: BD6/FEMALE, Target Tissue: Type of Lesion: ESOPHAGUS: TUMOR, Dose [Carcinogen]: 80 MG/KG BW 1/WK FOR 10 WK, Promoter: NONE USED): 35%, 28%, 20%, not significant
- tumour outcome (control, treated, inhibition, significance) (Carcinogen: DIETHYLNITROSAMINE, 55-18-5, Dose [Inhibitor]: 0, 15 G/L IN DRINKING WATER FOR DURATION OF STUDY BEGINNING 2 D POST CARCINOGEN TREATMENT (STUDY DURATION: 6 MO), Route [Inhibitor]: ORAL, Species: RAT, Strain/Sex: BD6/FEMALE, Target Tissue: Type of Lesion: LIVER: TUMOR, Dose [Carcinogen]: 80 MG/KG BW 1/WK FOR 10 WK, Promoter: NONE USED): 100%, 100%, 0%, not significant
- tumour outcome (control, treated, inhibition, significance) (Carcinogen: DIETHYLSTILBESTROL, 56-53-1, Dose [Inhibitor]: 1 G/KG OR 2.5 G/KG OF DIET BEGINNING 2 D PRIOR TO FIRST CARCINOGEN IMPLANT AND CONTINUING FOR DURATION OF STUDY (STUDY D, Route [Inhibitor]: ORAL, Species: HAMSTER, Strain/Sex: SYRIAN/MALE, Target Tissue: Type of Lesion: KIDNEY: CARCINOMA, Dose [Carcinogen]: 90% OF 40 MG PELLET (OTHER 10% CHOLESTEROL) 2 D AFTER START OF AGENT TREATMENT AND AGAIN 3 MO LATER, Promoter: NONE USED): 11/13 (85%), 14/29 (48%), 44%, p<0.05
- tumour outcome (control, treated, inhibition, significance) (Carcinogen: DIETHYNITROSAMINE, 55-18-5, Dose [Inhibitor]: 0, 3 G/L IN DRINKING WATER FOR DURATION OF STUDY BEGINNING 2 D POST CARCINOGEN TREATMENT (STUDY DURATION: 6 MO), Route [Inhibitor]: ORAL, Species: RAT, Strain/Sex: BD6/FEMALE, Target Tissue: Type of Lesion: LIVER: TUMOR, Dose [Carcinogen]: 80 MG/KG BW 1/WK FOR 10 WK, Promoter: NONE USED): 100%, 100%, 0%, not significant
- tumour outcome (control, treated, inhibition, significance) (Carcinogen: ETHYLUREA, 625-52-5, SODIUM NITRITE, 7632-00-0, Carcinogen: ETHYLUREA, 625-52-5, SODIUM NITRITE, 7632-00-0, Dose [Inhibitor]: 200 MG/KG BW ADMINISTERED INTRAGASTRICALLY ONCE ON D 15 OF GESTATION SIMULTANEOUSLY WITH CARCINOGEN TREATMENT (STUDY DUR, Route [Inhibitor]: TRANSPLACENTAL, Species: HAMSTER, Strain/Sex: SYRIAN/FEMALE, Target Tissue: Type of Lesion: PERIPHERAL NERVOUS SYSTEM: NEOPLASM, Dose [Carcinogen]: 200 MG ETHYLUREA/KG BW AND 100 MG SODIUM NITRITE/KG BW IG ONCE, Promoter: NONE USED): 9/18 (50%), 0/18 (0%), 100%, not calculated
- tumour outcome (control, treated, inhibition, significance) (Carcinogen: ETHYLUREA, 625-52-5, SODIUM NITRITE, 7632-00-0, Carcinogen: ETHYLUREA, 625-52-5, SODIUM NITRITE, 7632-00-0, Dose [Inhibitor]: 200 MG/KG BW ADMINISTERED INTRAGASTRICALLY ONCE ON D 15 OF GESTATION SIMULTANEOUSLY WITH CARCINOGEN TREATMENT (STUDY DUR, Route [Inhibitor]: TRANSPLACENTAL, Species: HAMSTER, Strain/Sex: SYRIAN/MALE, Target Tissue: Type of Lesion: PERIPHERAL NERVOUS SYSTEM: NEOPLASM, Dose [Carcinogen]: 200 MG ETHYLUREA/KG BW AND 100 MG SODIUM NITRITE/KG BW IG ONCE, Promoter: NONE USED): 6/18 (33%), 0/24 (0%), 100%, not calculated
- tumour outcome (control, treated, inhibition, significance) (Carcinogen: FIBERGLASS DUST, Dose [Inhibitor]: 400 MG/KG BW 1/3 D FOR 10 TREATMENTS STARTING 3 D POST CARCINOGEN TREATMENT (STUDY DURATION: 90 D), Route [Inhibitor]: INTRAPERITONEAL, Species: MOUSE, Strain/Sex: STRAIN-A/MALE, Target Tissue: Type of Lesion: LUNG: TUMOR, Dose [Carcinogen]: 300 MG IN 100 G OF STERILIZED PINE SAWDUST BEDDING FOR 30 D, Promoter: NONE USED): 6/12 (50%), 1/12 (8%), 84%, not calculated
- tumour outcome (control, treated, inhibition, significance) (Carcinogen: N,N-DIETHYLNITROSAMINE, 55-18-5, Dose [Inhibitor]: 4.5 MG/100 KG DIET FOR 58 WK STARTING SIMULTANEOUSLY WITH CARCINOGEN AND PROMOTER TREATMENT AND CONTINUING FOR DURATION, Route [Inhibitor]: ORAL, Species: HAMSTER, Strain/Sex: SYRIAN/MALE, Target Tissue: Type of Lesion: LARYNX: TUMORS, Dose [Carcinogen]: 10 MG (TOTAL DOSE) IN 0.9% SALINE 1/WK FOR 12 WK, Promoter: CIGARETTE SMOKE): 20/30 (67%), 17/30 (57%), 15%, not significant
- tumour outcome (control, treated, inhibition, significance) (Carcinogen: N,N-DIETHYLNITROSAMINE, 55-18-5, Dose [Inhibitor]: 4.5 MG/100 KG DIET FOR 58 WK STARTING SIMULTANEOUSLY WITH CARCINOGEN AND PROMOTER TREATMENT AND CONTINUING FOR DURATION, Route [Inhibitor]: ORAL, Species: HAMSTER, Strain/Sex: SYRIAN/MALE, Target Tissue: Type of Lesion: NASAL CAVITY: TUMORS, Dose [Carcinogen]: 10 MG (TOTAL DOSE) IN 0.9% SALINE 1/WK FOR 12 WK, Promoter: CIGARETTE SMOKE): 14/29 (48%), 8/30 (27%), 44%, not significant
- tumour outcome (control, treated, inhibition, significance) (Carcinogen: N,N-DIETHYLNITROSAMINE, 55-18-5, Dose [Inhibitor]: 4.5 MG/100 KG DIET FOR 58 WK STARTING SIMULTANEOUSLY WITH CARCINOGEN AND PROMOTER TREATMENT AND CONTINUING FOR DURATION, Route [Inhibitor]: ORAL, Species: HAMSTER, Strain/Sex: SYRIAN/MALE, Target Tissue: Type of Lesion: TRACHEA: TUMORS, Dose [Carcinogen]: 10 MG (TOTAL DOSE) IN 0.9% SALINE 1/WK FOR 12 WK, Promoter: CIGARETTE SMOKE): 30/30 (100%), 29/30 (97%), 3%, not significant
- tumour outcome (control, treated, inhibition, significance) (Carcinogen: N-(4-(5-NITRO-2-FURYL)-2-THIAZOLYL)FORMAMIDE, 24554-26-5, Dose [Inhibitor]: 250 MG/100 CC DRINKING WATER STARTING SIMULTANEOUSLY WITH CARCINOGEN TREATMENT AND CONTINUING FOR DURATION OF STUDY (STU, Route [Inhibitor]: ORAL, Species: MOUSE, Strain/Sex: C3H/FEMALE, Target Tissue: Type of Lesion: URINARY BLADDER: TRANSITIONAL CELL CARCINOMA, Dose [Carcinogen]: 0.1% IN DIET FOR DURATION OF STUDY, Promoter: NONE USED): 41/41 (100%), 12/13 (92%), 8%, p<0.7
